≈ marks a conversion by molar mass, not a printed value. Where two headings read alike, the source gives them in different places.
Tested on: Enterobacterales
Assay: MIC, broth microdilution, CDC/FDA Antibiotic Resistance Isolate Bank (Example 7, Tables 8, 11, 12)
Type: cell-based
Conditions: for MIC: read-out: MIC; for MIC50 / MIC90: carbapenemase-producing Enterobacterales; for MIC50: read-out: MIC50; for MIC90: read-out: MIC90

NCC[C@H](O)C(=O)N[C@@H]1C[C@H](N)[C@@H](O[C@H]2O[C@H](CN)[C@@H](O)[C@H](O)[C@H]2O)[C@H](O)[C@H]1O[C@H]1O[C@H](CO)[C@@H](O)[C@H](N)[C@H]1O [Amikacin, amikacin]
MIC (Klebsiella pneumoniae, KUB No. 5541, AR Bank# 44): 16 µg/mL (≈ 27.3 µM) | MIC (Klebsiella pneumoniae, KUB No. 5543, AR Bank# 46): 16 µg/mL (≈ 27.3 µM) | MIC (Klebsiella pneumoniae, KUB No. 5546, AR Bank# 49): > 64 µg/mL | MIC (Klebsiella pneumoniae, KUB No. 5563, AR Bank # 66): 8 µg/mL (≈ 13.7 µM) | MIC (Klebsiella pneumoniae, KUB No. 5565, AR Bank # 68): 64 µg/mL (≈ 109 µM) | MIC (Klebsiella pneumoniae, KUB No. 5572, AR Bank # 75): > 64 µg/mL | MIC (Klebsiella pneumoniae, KUB No. 5573, AR Bank # 76): 8 µg/mL (≈ 13.7 µM) | MIC (Klebsiella pneumoniae, KUB No. 5576, AR Bank # 79): > 64 µg/mL | MIC (Klebsiella pneumoniae, KUB No. 5577, AR Bank # 80): 4 µg/mL (≈ 6.83 µM) | MIC (Klebsiella pneumoniae, KUB No. 5584, AR Bank # 87): 1 µg/mL (≈ 1.71 µM) | MIC (Klebsiella pneumoniae, KUB No. 5594, AR Bank # 97): 64 µg/mL (≈ 109 µM) | MIC (Klebsiella pneumoniae, KUB No. 5595, AR Bank # 98): 32 µg/mL (≈ 54.6 µM) | MIC (Klebsiella pneumoniae, KUB No. 5603, AR Bank # 106): > 64 µg/mL | MIC (Klebsiella pneumoniae, KUB No. 5604, AR Bank # 107): > 64 µg/mL | MIC (Klebsiella pneumoniae, KUB No. 5606, AR Bank # 109): 8 µg/mL (≈ 13.7 µM) | MIC (Klebsiella pneumoniae, KUB No. 5609, AR Bank # 112): 32 µg/mL (≈ 54.6 µM) | MIC (Klebsiella pneumoniae, KUB No. 5610, AR Bank # 113): 32 µg/mL (≈ 54.6 µM) | MIC (Klebsiella pneumoniae, KUB No. 5612, AR Bank # 115): 0.5 µg/mL (≈ 0.854 µM) | MIC (Klebsiella pneumoniae, KUB No. 5614, AR Bank # 117): 32 µg/mL (≈ 54.6 µM) | MIC (Klebsiella pneumoniae, KUB No. 5617, AR Bank # 120): 32 µg/mL (≈ 54.6 µM) | MIC (Klebsiella pneumoniae, KUB No. 5622, AR Bank # 125): 32 µg/mL (≈ 54.6 µM) | MIC (Klebsiella pneumoniae, KUB No. 5623, AR Bank # 126): 4 µg/mL (≈ 6.83 µM) | MIC (Klebsiella pneumoniae, KUB No. 5626, AR Bank # 129): 32 µg/mL (≈ 54.6 µM) | MIC (Klebsiella pneumoniae, KUB No. 5632, AR Bank # 135): 8 µg/mL (≈ 13.7 µM) | MIC (Klebsiella pneumoniae, KUB No. 5635, AR Bank # 138): > 64 µg/mL | MIC (Klebsiella pneumoniae, KUB No. 5636, AR Bank # 139): > 64 µg/mL | MIC (Klebsiella pneumoniae, KUB No. 5637, AR Bank # 140): > 64 µg/mL | MIC (Klebsiella pneumoniae, KUB No. 5638, AR Bank # 141): > 64 µg/mL | MIC (Klebsiella pneumoniae, KUB No. 5639, AR Bank # 142): > 64 µg/mL | MIC (Klebsiella pneumoniae, KUB No. 5640, AR Bank # 143): > 64 µg/mL | MIC (Klebsiella pneumoniae, KUB No. 5642, AR Bank # 145): 16 µg/mL (≈ 27.3 µM) | MIC (Klebsiella pneumoniae, KUB No. 5643, AR Bank # 146): 16 µg/mL (≈ 27.3 µM) | MIC (Klebsiella pneumoniae, KUB No. 5645, AR Bank # 148): > 64 µg/mL | MIC (Klebsiella pneumoniae, KUB No. 5649, AR Bank # 152): 32 µg/mL (≈ 54.6 µM) | MIC (Klebsiella pneumoniae, KUB No. 5650, AR Bank # 153): > 64 µg/mL | MIC (Klebsiella pneumoniae, KUB No. 5655, AR Bank # 158): 2 µg/mL (≈ 3.42 µM) | MIC (Klebsiella pneumoniae, KUB No. 5657, AR Bank # 160): 0.5 µg/mL (≈ 0.854 µM) | MIC (Klebsiella pneumoniae, KUB No. 5757, AR Bank # 361): 32 µg/mL (≈ 54.6 µM) | MIC (Klebsiella pneumoniae, KUB No. 5759, AR Bank # 363): 16 µg/mL (≈ 27.3 µM) | MIC (Klebsiella pneumoniae, KUB No. 5760, AR Bank # 364): 16 µg/mL (≈ 27.3 µM) | MIC (Klebsiella pneumoniae, KUB No. 5772, AR Bank # 376): 2 µg/mL (≈ 3.42 µM) | MIC (Klebsiella pneumoniae, Klebsiella pneumoniae KUB No. 5784, AR Bank #438): 32 µg/mL (≈ 54.6 µM) | MIC (Klebsiella pneumoniae, Klebsiella pneumoniae KUB No. 5797, AR Bank #453): 32 µg/mL (≈ 54.6 µM) | MIC (Klebsiella pneumoniae, Klebsiella pneumoniae KUB No. 5809, AR Bank #504): 2 µg/mL (≈ 3.42 µM) | MIC (Klebsiella pneumoniae, Klebsiella pneumoniae KUB No. 5810, AR Bank #505): 8 µg/mL (≈ 13.7 µM) | MIC (Klebsiella pneumoniae, Klebsiella pneumoniae KUB No. 5811, AR Bank #506): 32 µg/mL (≈ 54.6 µM) | MIC (Klebsiella pneumoniae, Klebsiella pneumoniae KUB No. 5812, AR Bank #507): > 64 µg/mL | MIC (Klebsiella pneumoniae, Klebsiella pneumoniae KUB No. 5827, AR Bank #522): 4 µg/mL (≈ 6.83 µM) | MIC (Klebsiella pneumoniae, Klebsiella pneumoniae KUB No. 5828, AR Bank #523): 8 µg/mL (≈ 13.7 µM) | MIC (Klebsiella pneumoniae, Klebsiella pneumoniae KUB No. 5829, AR Bank #524): 16 µg/mL (≈ 27.3 µM) | MIC (Klebsiella pneumoniae, Klebsiella pneumoniae KUB No. 5830, AR Bank #525): 32 µg/mL (≈ 54.6 µM) | MIC (Kluyvera ascorbata, KUB No. 5641, AR Bank # 144): 4 µg/mL (≈ 6.83 µM) | MIC (Morganella morganii, KUB No. 5554, AR Bank# 57): 4 µg/mL (≈ 6.83 µM) | MIC (Morganella morganii, KUB No. 5630, AR Bank # 133): 1 µg/mL (≈ 1.71 µM) | MIC (Proteus mirabilis, KUB No. 5556, AR Bank# 59): 4 µg/mL (≈ 6.83 µM) | MIC (Proteus mirabilis, KUB No. 5652, AR Bank # 155): 1 µg/mL (≈ 1.71 µM) | MIC (Proteus mirabilis, KUB No. 5653, AR Bank # 156): 4 µg/mL (≈ 6.83 µM) | MIC (Proteus mirabilis, KUB No. 5656, AR Bank # 159): > 64 µg/mL | MIC (Proteus mirabilis, KUB No. 5773, AR Bank # 377): 2 µg/mL (≈ 3.42 µM) | MIC (Proteus mirabilis, KUB No. 5775, AR Bank # 379): 8 µg/mL (≈ 13.7 µM) | MIC (Providencia rettgeri, KUB No. 5579, AR Bank # 82): 1 µg/mL (≈ 1.71 µM) | MIC (Salmonella enterica, Salmonella Senftenberg, KUB No. 5624, AR Bank # 127): > 64 µg/mL | MIC (Serratia marcescens, KUB No. 5588, AR Bank # 91): 1 µg/mL (≈ 1.71 µM) | MIC (Serratia marcescens, KUB No. 5596, AR Bank # 99): 1 µg/mL (≈ 1.71 µM) | MIC (Serratia marcescens, KUB No. 5618, AR Bank # 121): 2 µg/mL (≈ 3.42 µM) | MIC (Serratia marcescens, KUB No. 5619, AR Bank # 122): 1 µg/mL (≈ 1.71 µM) | MIC (Serratia marcescens, KUB No. 5620, AR Bank # 123): 1 µg/mL (≈ 1.71 µM) | MIC (Serratia marcescens, KUB No. 5621, AR Bank # 124): 2 µg/mL (≈ 3.42 µM) | MIC (Serratia marcescens, KUB No. 5627, AR Bank # 130): 2 µg/mL (≈ 3.42 µM) | MIC (Serratia marcescens, KUB No. 5628, AR Bank # 131): 1 µg/mL (≈ 1.71 µM) | MIC (Serratia marcescens, Serratia marcescens KUB No. 5822, AR Bank #517): 8 µg/mL (≈ 13.7 µM) | MIC (Serratia marcescens, Serratia marcescens KUB No. 5825, AR Bank #520): 64 µg/mL (≈ 109 µM) | MIC (Serratia marcescens, Serratia marcescens KUB No. 5826, AR Bank #521): 2 µg/mL (≈ 3.42 µM) | MIC50 (Metallo-β-lactamase (N = 47)): 16 µg/mL (≈ 27.3 µM) | MIC90 (Metallo-β-lactamase (N = 47)): > 64 µg/mL | MIC50 (Serine carbapenemase (N=61)): 4 µg/mL (≈ 6.83 µM) | MIC90 (Serine carbapenemase (N=61)): 64 µg/mL (≈ 109 µM)

From patent EP4635500A1, “THERAPEUTIC AGENT FOR BACTERIAL INFECTION” (Sumitomo Pharma Co., Ltd., priority 2022, dated 2024)
